Among the data in US8754073B2, “Substituted piperazino-dihydrothienopyrimidines” (Boehringer Ingelheim International GmbH, priority 2007, dated 2014) are inhibition values, retold here.

Structures can show the parent of a compound that is named as a salt.

Sequence of PDE4B (Q07343 whole entry, species assumed): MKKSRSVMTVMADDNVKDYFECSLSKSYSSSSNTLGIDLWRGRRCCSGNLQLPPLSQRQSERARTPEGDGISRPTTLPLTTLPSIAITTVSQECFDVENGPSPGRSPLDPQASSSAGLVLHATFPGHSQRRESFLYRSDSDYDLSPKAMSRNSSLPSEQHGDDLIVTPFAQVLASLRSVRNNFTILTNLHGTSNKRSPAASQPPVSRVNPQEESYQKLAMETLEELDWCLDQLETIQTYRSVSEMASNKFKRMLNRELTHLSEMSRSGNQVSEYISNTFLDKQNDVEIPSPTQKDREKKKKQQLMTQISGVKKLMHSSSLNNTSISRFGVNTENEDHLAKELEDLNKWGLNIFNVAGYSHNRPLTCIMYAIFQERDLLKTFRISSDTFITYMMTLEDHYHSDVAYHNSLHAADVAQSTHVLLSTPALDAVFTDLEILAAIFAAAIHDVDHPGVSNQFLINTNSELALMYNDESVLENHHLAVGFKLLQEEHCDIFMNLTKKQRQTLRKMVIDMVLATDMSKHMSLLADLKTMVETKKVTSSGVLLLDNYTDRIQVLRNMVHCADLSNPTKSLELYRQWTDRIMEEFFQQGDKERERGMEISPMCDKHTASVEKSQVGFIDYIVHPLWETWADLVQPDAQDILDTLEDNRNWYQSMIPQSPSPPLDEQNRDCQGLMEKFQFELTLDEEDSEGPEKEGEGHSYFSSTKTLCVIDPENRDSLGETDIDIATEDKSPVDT

For the first assay, the target named is PDE4B (Homo sapiens, UniProt Q07343). Description: Scintillation Proximity Assay (SPA) of PDE4B enzyme activity ([H3]-cAMP cleavage). The following applies: test substance 1 μM; one-hour incubation of [H3]-cAMP with PDE4B enzyme at 30° C. Type of assay: biochemical. The method, boiled down:
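SPA read-out: [H3]-cAMP incubated with PDE4B in assay buffer for 1 h at 30 °C, with and without test compound at 1 μM. Reaction stopped by adding yttrium silicate beads that bind the [H3]-AMP product; after 45 min settling, scintillation counted. Value is % inhibition at 1 μM.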
In general terms: SPA uses beads or plates that emit light when radiolabelled molecules are held near them.
Take `CN1C[C@@H](Nc2nc(N3CCC(C#N)(c4ccccc4)CC3)nc3c2[S+]([O-])CC3)CCC1=O` (stereo partly drawn) [Example 55, 1-[4-((S)-1-Methyl-6-Oxopiperidin-3-Ylamino)-5-Oxo-6,7-Dihydro-5H-5λ^4-Thieno[3,2-d]Pyrimidine-2-Yl]-4-Phenylpiperidine-4-Carbonitrile]: the inhibition at 1 µM turned out to be 96%.
`CC(C)[C@H](CO)Nc1nc(N2CCC(C#N)(c3ccccc3)CC2)nc2c1[S+]([O-])CC2` (stereo partly drawn) [Example 25] returned an inhibition at 1 µM of 90%.
On the same count and under the same terms, the figure for `CC(C)[C@H](CO)Nc1nc(N2CCC(c3cccc(O)c3)CC2)nc2c1[S+]([O-])CC2` (stereo partly drawn) [Example 17] is 93%.
As for `O=C1Nc2ccccc2C2(CCN(c3nc4c(c(NC5CCOCC5)n3)[S+]([O-])CC4)CC2)O1` (stereo not drawn) [Example 65], at 1 µM the inhibition was 94%.
Compound `CC(C)[C@H](CO)Nc1nc(N2CCC(c3ccc4ccccc4c3)CC2)nc2c1[S+]([O-])CC2` (stereo partly drawn) [Example 158] came in with an inhibition at 1 µM of 94%.
With `CC(C)[C@H](CO)Nc1nc(N2CCC(c3c[nH]c4ccccc34)CC2)nc2c1[S+]([O-])CC2` (stereo partly drawn) [Example 12], testing at 1 µM gave an inhibition of 94%.
On the same count and under the same terms, the figure for `[O-][S+]1CCc2nc(N3CCC(c4nc(-c5cccnc5)no4)CC3)nc(Nc3cccc(F)c3)c21` (stereo not drawn) [Example 146] is 96%; for `[O-][S+]1CCc2nc(N3CCC(c4cc5ccccc5o4)CC3)nc(NC3CCOCC3)c21` (stereo not drawn) [Example 126] it is 96%.
Compound `[O-][S+]1CCc2nc(N3CCC(O)(c4cc(F)cc(F)c4)CC3)nc(NC3CCOCC3)c21` (stereo not drawn) [Example 62] had an inhibition at 1 µM of 96%.
Consider `[O-][S+]1CCc2nc(N3CCC(O)(c4cc(F)cc(F)c4)CC3)nc(Nc3cccc(F)c3)c21` (stereo not drawn) [Example 77], for which the inhibition at 1 µM was 96%.
Consider `CC(C)[C@H](CO)Nc1nc(N2CCC(c3cccc(Cl)c3)CC2)nc2c1[S+]([O-])CC2` (stereo partly drawn) [Example 24], for which the inhibition at 1 µM worked out at 94%.
On the same count and under the same terms, the figure for `[O-][S+]1CCc2nc(N3CCC(c4ccncc4)CC3)nc(Nc3cccc(F)c3)c21` (stereo not drawn) [Example 78, (3-Fluorophenyl)-[5-Oxo-2-(3.4.5.6-Tetrahydro-2H-[4,4′]Bipyridinyl-1-Yl)-6,7-Dihydro-5H-5λ^4-Thieno[3,2-d]Pyrimidin-4-Yl]-Amine Trifluoroacetate] is 96%; for `[O-][S+]1CCc2nc(N3CCC(c4noc5ccc(F)cc45)CC3)nc(Nc3cccc(F)c3)c21` (stereo not drawn) [Example 137] it is 95%.
Regarding `[O-][S+]1CCc2nc(N3CCC(c4cc(-c5ccco5)n[nH]4)CC3)nc(NC3CCOCC3)c21` (stereo not drawn) [Example 130], at 1 µM the inhibition was 96%.
Take `CC(C)[C@H](CO)Nc1nc(N2CCC(c3cc4ccccc4o3)CC2)nc2c1[S+]([O-])CC2` (stereo partly drawn) [Example 157]: the inhibition at 1 µM was found to be 96%.
`Cc1cccc(C2CCN(c3nc4c(c(NC5(CO)CC5)n3)[S+]([O-])CC4)CC2)c1` (stereo not drawn) [Example 8] yielded an inhibition at 1 µM of 93%.
Turning to `COC(=O)c1ccc(C2CCN(c3nc4c(c(NC5CCOCC5)n3)[S+]([O-])CC4)CC2)cc1` (stereo not drawn) [Example 119], the inhibition at 1 µM worked out at 95%.
`[O-][S+]1CCc2nc(N3CCC(c4ccccc4F)CC3)nc(NC3CCOCC3)c21` (stereo not drawn) [Example 88] displayed an inhibition at 1 µM of 92%.
For `CC(C)c1noc(C2CCN(c3nc4c(c(Nc5cccc(F)c5)n3)[S+]([O-])CC4)CC2)n1` (stereo not drawn) [Example 144], the inhibition at 1 µM is 94%.
As to `[O-][S+]1CCc2nc(N3CCC4(CC3)OCc3ccccc34)nc(NC3CCOCC3)c21` (stereo not drawn) [Example 125], the inhibition at 1 µM was found to be 74%.
Compound `[O-][S+]1CCc2nc(N3CCC(c4ccc(Cl)cc4)CC3)nc(NC3(CO)CC3)c21` (stereo not drawn) [Example 2, (1-{2-[4-(4-Chlorophenyl)-Piperidin-1-Yl]-5-Oxo-6,7-Dihydro-5H-5λ^4-Thieno[3,2-d]Pyrimidin-4-Ylamino}-Cyclopropyl)-Methanol] came in with an inhibition at 1 µM of 94%.
Same read-out and setting: the figure for `[O-][S+]1CCc2nc(N3CCC(c4cc(Cl)cc(Cl)c4)CC3)nc(NC3(CO)CC3)c21` (stereo not drawn) [Example 91, (1-{2-[4-(3,5-Dichlorophenyl)-Piperidin-1-Yl]-5-Oxo-6,7-Dihydro-5H-5λ^4-Thieno[3,2-d]Pyrimidin-4-Ylamino}-Cyclopropyl)-Methanol] is 94%.
Regarding `[O-][S+]1CCc2nc(N3CCC(c4nc(-c5ccncc5)no4)CC3)nc(Nc3cccc(F)c3)c21` (stereo not drawn) [Example 147, (3-Fluorophenyl)-{5-Oxo-2-[4-(3-Pyridin-4-Yl-[1,2,4]Oxadiazol-5-Yl)-Piperidin-1-Yl]-6,7-Dihydro-5H-5λ^4-Thieno[3,2-d]Pyrimidin-4-Yl}-Amine Trifluoroacetate], at 1 µM the inhibition was 95%.
In the case of `COC(=O)c1cccc(C2CCN(c3nc4c(c(NC5CCOCC5)n3)[S+]([O-])CC4)CC2)c1` (stereo not drawn) [Example 120], the inhibition at 1 µM stood at 95%.
`COC(=O)c1ccc(C2CCN(c3nc4c(c(N[C@@H](CO)C(C)C)n3)[S+]([O-])CC4)CC2)cc1` (stereo partly drawn) [Example 150] yielded an inhibition at 1 µM of 94%.
In turn, `[O-][S+]1CCc2nc(N3CCC(c4ccc(C(F)(F)F)cc4)CC3)nc(NC3CCOCC3)c21` (stereo not drawn) [Example 96, {5-Oxo-2-[4-(4-Trifluoromethylphenyl)-Piperidin-1-Yl]-6,7-Dihydro-5H-5λ^4-Thieno[3,2-d]Pyrimidin-4-Yl}-(Tetrahydropyran-4-Yl)-Amine] had an inhibition at 1 µM of 94%.
`CN1C[C@@H](Nc2nc(N3CCC4(CC3)NC(=O)Nc3ccccc34)nc3c2[S+]([O-])CC3)CCC1=O` (stereo partly drawn) [Example 51] had an inhibition at 1 µM of 83%.
Compound `[O-][S+]1CCc2nc(N3CCC(c4noc5ccccc45)CC3)nc(NC3CCOCC3)c21` (stereo not drawn) [Example 60] yielded an inhibition at 1 µM of 97%.

Still in this assay, the particulars now being: test substance 1 μM; one-hour incubation with [H3]-cAMP at 30° C.
Turning to `CN1C[C@@H](Nc2nc(N3CCC(c4nc(-c5ccccc5)c(-c5ccccc5)o4)CC3)nc3c2[S+]([O-])CC3)CCC1=O` (stereo partly drawn) [Example 278, 5-{2-[4-(4,5-diphenyloxazol-2-yl)-piperidin-1-yl]-5-oxo-6,7-dihydro-5H-5λ^4-thieno[3,2-d]pyrimidin-4-ylamino}-1-methylpiperidin-2-one], the inhibition at 1 µM worked out at 95%.
With `COC1(c2ccc(Cl)cc2)CCN(c2nc3c(c(N[C@H]4CCC(=O)N(C)C4)n2)[S+]([O-])CC3)CC1` (stereo partly drawn) [Example 261, 5-{2-[4-(4-chlorophenyl)-4-methoxypiperidin-1-yl]-5-oxo-6,7-dihydro-5H-5λ^4-thieno[3,2-d]pyrimidin-4-ylamino}-1-methylpiperidin-2-one], the inhibition at 1 µM was determined as 95%.
`COC1(c2cc(F)cc(F)c2)CCN(c2nc3c(c(N[C@H]4CCC(=O)N(C)C4)n2)[S+]([O-])CC3)CC1` (stereo partly drawn) [Example 273, 5-{2-[4-(3,5-difluorophenyl)-4-methoxypiperidin-1-yl]-5-oxo-6,7-dihydro-5H-5λ^4-thieno[3,2-d]pyrimidin-4-ylamino}-1-methylpiperidin-2-one]: at 1 µM the inhibition was 94%.
The compound `Cc1nn(C)cc1C(C)NC(=O)c1cccc(C2CCN(c3nc4c(c(NC5CCOCC5)n3)[S+]([O-])CC4)CC2)c1` (stereo not drawn) [Example 251] had an inhibition at 1 µM of 90%.
`CN1C[C@@H](Nc2nc(N3CCC(Oc4ccc(Cl)cc4)CC3)nc3c2[S+]([O-])CC3)CCC1=O` (stereo partly drawn) [Example 265] registered an inhibition at 1 µM of 89%.
Compound `CN1C[C@@H](Nc2nc(N3CCC(c4nc5ccc(Cl)cc5o4)CC3)nc3c2[S+]([O-])CC3)CCC1=O` (stereo partly drawn) [Example 194, 5-{2-[4-(6-Chlorbenzoxazol-2-yl)-piperidin-1-yl]-5-oxo-6,7-dihydro-5H-5λ^4-thieno[3,2-d]pyrimidin-4-ylamino}-1-methylpiperidin-2-one] displayed an inhibition at 1 µM of 97%.
The same measure, in the same setting: the figure for `O=C(c1ccc(C2CCN(c3nc4c(c(NC5CCOCC5)n3)[S+]([O-])CC4)CC2)cc1)N1CCOCC1` (stereo not drawn) [Example 227] is 83%; for `COC1(c2ccc(Cl)cc2)CCN(c2nc3c(c(N[C@@H](CO)C(C)C)n2)[S+]([O-])CC3)CC1` (stereo partly drawn) [Example 315] it is 89%.
`COCC(=O)N(C)CC1(c2ccccc2)CCN(c2nc3c(c(NC4CCOCC4)n2)[S+]([O-])CC3)CC1` (stereo not drawn) [Example 323, 2-methoxy-N-methyl-N-{1-[5-oxo-4-(tetrahydropyran-4-ylamino)-6,7-dihydro-5H-5λ^4-thieno[3,2-d]pyrimidin-2-yl]-4-phenylpiperidin-4-ylmethyl}-acetamide] yielded an inhibition at 1 µM of 94%.
Same read-out and setting: to `[O-][S+]1CCc2nc(N3CCC(OCc4ccccc4)CC3)nc(NC3CCOCC3)c21` (stereo not drawn) [Example 172] belongs 91%; to `Cc1oc(C2CCN(c3nc4c(c(NC5(CO)CC5)n3)[S+]([O-])CC4)CC2)nc1-c1ccccc1` (stereo not drawn) [Example 277], 96%.
On to `[O-][S+]1CCc2nc(N3CCC(c4nc5c(o4)CCCC5)CC3)nc(NC3(CO)CC3)c21` (stereo not drawn) [Example 328], for which the inhibition at 1 µM worked out at 93%.
The compound `[O-][S+]1CCc2nc(N3CCC(c4nc5c(o4)CCCC5)CC3)nc(NC3CCOCC3)c21` (stereo not drawn) [Example 329] had an inhibition at 1 µM of 95%.
Compound `[O-][S+]1CCc2nc(N3CCC(CO)(c4ccc(Cl)cc4)CC3)nc(NC3(CO)CC3)c21` (stereo not drawn) [Example 301] showed an inhibition at 1 µM of 92%.
Consider `[O-][S+]1CCc2nc(N3CCC(Oc4ccccn4)CC3)nc(NC3CCOCC3)c21` (stereo not drawn) [Example 173], for which the inhibition at 1 µM came to 95%.
As for `CC(C)[C@H](CO)Nc1nc(N2CCC(CNS(C)(=O)=O)(c3ccccc3)CC2)nc2c1[S+]([O-])CC2` (stereo partly drawn) [Example 326], the inhibition at 1 µM was 88%.
Compound `O=C(c1ccc(OC2CCN(c3nc4c(c(NC5CCOCC5)n3)[S+]([O-])CC4)CC2)cc1)N(C1CCOCC1)C1CC1` (stereo not drawn) [Example 238] yielded an inhibition at 1 µM of 95%.
Take `Cc1nn(C)c(C)c1CNC(=O)c1cccc(C2CCN(c3nc4c(c(NC5CCOCC5)n3)[S+]([O-])CC4)CC2)c1` (stereo not drawn) [Example 250]: the inhibition at 1 µM was found to be 92%.
`N#CC1(c2ccc(F)cc2)CCN(c2nc3c(c(NC4(CO)CC4)n2)[S+]([O-])CC3)CC1` (stereo not drawn) [Example 295] came in with an inhibition at 1 µM of 93%.
On the same count and under the same terms, to `Cn1c(C2CCN(c3nc4c(c(NC5CCOCC5)n3)[S+]([O-])CC4)CC2)nc2ccccc21` (stereo not drawn) [Example 212] belongs 93%.

As usually defined, the inhibition is the percentage by which the read-out fell short of the control.
